These results are taken from patent US20170325451A1, “Use of Alkyl Gallate for Stimulating the Natural Defenses of Plants” (priority 2014, published 2017).

One data set has as its system tobacco BY-2 cells. Put plainly: Alkalinization of the extracellular medium of tobacco BY-2 cell cultures. It counts as cell-based. The settings on record: for alkalinization of the extracellular medium: molar concentrations from 2 to 5 mmol·L^−1, BY-2 cultures. The procedure:
The cell cultures are tobacco BY-2 cells maintained in cultures at 24° C., under stirring in darkness.
EG solutions (molar concentrations from 0.5 mmol·L^−1 to 5 mmol·L^−1), MG (1 mmol·L^−1 and 5 mmol·L^−1), or PG solutions (1 mmol·L^−1 and 5 mmol·L^−1) are added to tobacco BY-2 cell cultures at time T0. The pH is measured continuously (every 10 min) in the extracellular medium for 150 minutes.
The cell cultures are tobacco BY-2 cells maintained in cultures at 24° C., under stirring and in darkness.
Two GA solutions (0.5 mmol·L^−1 and 5 mmol·L^−1) are added to tobacco BY-2 cell cultures at time T0. The pH is measured continuously (every 10 min) in the extracellular medium for 150 minutes. EG solutions at different molar concentrations (0.5 mmol·L^−1 and 5 mmol·L^−1) are used as controls.

Another data set concerns tobacco leaf. The experiment in a line: Infiltration of tobacco leaf: chlorosis and synthesis of autofluorescent compounds. It counts as in vivo. Conditions: 4 days after infiltration; for production of autofluorescent compounds around the infiltration sites: solutions 5 mmol·L^−1, infiltrated. The procedure: The plants are 8 weeks old, in the 12-15 leaf stage, cultured in a greenhouse or growing chamber.
50 μL of different EG solutions having molar concentrations (0.5 mmol·L^−1 to 5 mmol·L^−1) and of MG and PG solutions having a molar concentration of 5 mmol·L^−1 are infiltrated on the upper side of the tobacco leaf. The negative control is water; the positive control is salicylic acid (SA) at a molar concentration of […].
The different plants are photographed 4 days after the infiltration.
The negative control is water.

For data set [1], the system named is transcripts coding for pathogenesis-related proteins (PR1, PR2, PR3, PR5) in tobacco leaves. The experiment in a line: Accumulation of PR transcripts in treated tobacco leaves (quantitative real-time PCR). In kind it is in vivo. As for the experimental part: The markers for the acquired local response (ALR) are tested for in the tobacco leaves that have been treated by the infiltration method (20 infiltration points per leaf/50 μL per infiltration) or by spraying (sufficient quantity to cover the leaf and obtain saturation, or approximately 2 mL per leaf) at a rate of 3 leaves per plant (non-senescent basal leaves). The leaves treated are separated from the plant 4 days after treatment and frozen immediately in liquid nitrogen for grinding and extraction of the total RNA. The RNA is extracted in the presence of CTAB buffer according to the protocol described by Chang et al. (1993) [Chang S, Puryear J, Cairney J (1993) A simple and efficient method for isolation RNA from pine trees. Plant mol Biol rep 11: 113-116]. The total RNA is purified and treated by DNase I (1 U) and RNase inhibitor (40 U) (Euromedex), in order to eliminate any possible contamination of the genomic DNA. The total RNA assay is run on the spectrophotometer (NanoDrop-1000). The integrity of the RNA is checked by agarose gel electrophoresis (1%) by detection of the ribosomal RNA subunits. The complementary DNA is synthesized from 1 μg of total RNA using Euroscript Reverse Transcriptase (Eurogentec). The PCR reactions are carried out with the Mastermix for SYBR GREEN kit (Eurogentec) using the iCycler iQ5 software (Bio-Rad). The specificity of the amplification is verified by melting curve analysis. The gene coding for EF-1α is used as an internal control. The quantification of the transcripts is calculated according to the mathematical model developed by Pfaffl (2001). [Pfaffl (2001) A new mathematical model for relative quantification in real time RT-PCR. Nucl. Acids res 29: 2002-7]. […]
4 days after the infiltration, the transcripts coding for pathogenesis-related proteins (PR proteins) are measured by quantitative real-time PCR. The total RNA is extracted from the infiltrated tobacco leaves. The cDNA is synthesized, and the transcripts of interest are quantified using specific primers of the genes PR1, PR2 and PR3.
(In general: Real-time PCR tracks product formation cycle by cycle.)

Setting [2] is: 5 mmol·L^−1, infiltration, 4 days after treatment.
Setting [3] is: 5 mmol·L^−1, spraying, 4 days after treatment.
The mark [4] stands for this setting: 50 mmol·L^−1, infiltration, 4 days after treatment.
Setting [5] is: GA solutions 58.8 and 5.88 mmol·L^−1, infiltrated.

SMILES strings stand for the structures.

For `COC(=O)c1cc(O)c(O)c(O)c1` [MG, methyl gallate], the “alkalinization of the extracellular medium” value (“alkalinization” for short) with tobacco BY-2 cells is “induce a rapid alkalinization”. The “production of autofluorescent compounds around the infiltration sites” value with tobacco leaf (UV 312 nm) is “induce the same phenomenon of production of autofluorescent compounds”.
On to `CCOC(=O)c1cc(O)c(O)c(O)c1` [EG, ethyl gallate], for which, in data set [1] (setting [2]), the “Relative quantities of transcripts PR1” value is 6.7 ± 1.2, the “Relative quantities of transcripts PR2” value is given as 6.2 ± 1.7 and the “Relative quantities of transcripts PR3” value was 5.6 ± 1.3. For the same compound, in data set [1] (setting [3]), the “Relative quantities of transcripts PR1” value is listed as 15 ± 0.4, the “Relative quantities of transcripts PR2” value was found to be 32 ± 4.6, the “Relative quantities of transcripts PR3” value is on record as 23 ± 7.1 and the “Relative quantities of transcripts PR5” value turned out to be 14 ± 2.2. In data set [1] (setting [4]), the “Relative quantities of transcripts PR1” value came to 3.7 ± 1.3, the “Relative quantities of transcripts PR2” value is 23.4 ± 3.3 and the “Relative quantities of transcripts PR3” value is 30.4 ± 5.3. Moreover, the “accumulation of transcripts that are markers of the defense reactions: PR1, PR2, PR3, PR5” value in data set [1] (EG solutions 5 and 50 mmol·L^−1, infiltration or spraying) is reported as “induce the accumulation of transcripts”. Moreover, the “alkalinization” value in the data set with tobacco BY-2 cells is reported as “induce a rapid alkalinization”. For the same compound, in the data set on tobacco leaf (EG solutions 0.5 to 5 mmol·L^−1, 50 μL infiltrated on tobacco leaf, natural light), the chlorosis result was “do not induce chlorosis”. For the same compound, the “production of autofluorescent compounds of the phytoalexin type around the infiltration sites” value in the data set on tobacco leaf (EG solutions 0.5 to 5 mmol·L^−1, infiltrated, UV 312 nm) is listed as “extensive production of autofluorescent compounds”.
Consider `CCCOC(=O)c1cc(O)c(O)c(O)c1` [PG, propyl gallate], for which the “alkalinization” value in the data set on tobacco BY-2 cells is listed as “induce a rapid alkalinization”. Besides, the “production of autofluorescent compounds around the infiltration sites” value in the data set on tobacco leaf (UV 312 nm) was “induce the same phenomenon of production of autofluorescent compounds”.
For the compound `O=C(O)c1cc(O)c(O)c(O)c1` [GA, gallic acid, reference compound], in data set [1] (GA solution 5.88 mmol·L^−1, infiltration, 4 days after infiltration), the “accumulation of transcripts (PR1, PR2, PR3) compared to water” value is listed as “does not induce a significant accumulation of transcripts”. Further, the “effect on the pH of the culture medium” value in the data set on tobacco BY-2 cells (GA solutions 0.5 and 5 mmol·L^−1, 150 minutes) was “no effect on the pH”. Also, in the data set with tobacco leaf (setting [5]), the “autofluorescent zones around the infiltration zones” value is “not accompanied by autofluorescent zones” and the chlorosis result is on record as “induce strong chlorosis”.
